Tests used:
[1] = Hydrolysis assay: hydrolysis of prodrug to parent species in human liver S9; assay type: in vitro ADME; settings: human liver S9 1 mg protein/mL, prodrug 10 μM, 37° C., pH 7.4, 1 mM NADPH; for half-life at 10 μM: read-out: Half-life (min) of the conversion of the prodrug to the carboxylic acid
Experimental: Hydrolysis Assay: Analysis of Hydrolysis of Prodrug to Parent Species
The stability of 8 different prodrugs was investigated in human liver S9 microsomes. Incubations of prodrugs (10 μM) with liver S9 (1 mg protein/mL) were carried out at 37° C. in a phosphate buffer, pH 7.4, containing 1 mM NADPH. Control incubations contained BSA (1.1 mg/mL) instead of liver S9 microsomes. Aliquots were removed at 0, 5, 15, 30, 60 and 120 min, treated with 4 volumes of acetonitrile containing 2% formic acid and an internal standard, and centrifuged. The supernatants were analyzed by LC-MS/MS for prodrug disappearance and appearance of active drug. The half-life of the prodrug was calculated from the % prodrug remaining at different time points calculated from on the peak area ratio relative to t=0. The amount of active drug generated at the different time points was determined using a standard curve.

[2] = molecular target: recombinant human GST-Syk (Homo sapiens (Human), UniProt P43405); assay: Homogeneous Time-Resolved Fluorescence (HTRF) assay for the recombinant human Syk enzyme; assay type: biochemical; settings: recombinant human GST-Syk 5 pM, ATP 25 μM, read-out: rhSyk IC50
Method in brief: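 Recombinant GST-hSyk fusion protein kinase activity was read by HTRF. Reactions were started with biotinylated substrate peptide at 250 nM final, Mg 5 mM final and ATP 25 μM final. Potency derived from inhibition of substrate phosphorylation.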

[3] = molecular target: T1, Syk kinase (Homo sapiens (Human), UniProt P43405); settings: dosed intranasally, allergic rhinitis; cited from earlier work
[4] = molecular target: T1, Syk kinase; settings: phase II clinical trial, allergic rhinitis; cited from earlier work

Row | IC50 [2] | SMILES | other results
1 | 18 nM | CCOC(=O)[C@H]1CC[C@H](C(C)(O)c2ccc(-c3cc(C)cc(Nc4cc(C(F)F)ccn4)n3)cn2)CC1 (single isomer, unassigned) [Example 17, Ethyl trans-4-[(1R or 1S)-1-(6-{[4-(difluoromethyl)pyridin-2-yl]amino}-4-methyl-2,3′-bipyridin-6′-yl)-1-hydroxyethyl]cyclohexanecarboxylate] | half-life at 10 μM [1]: 5.6 min
2 | 670 nM | CCCCCCCOC(=O)[C@H]1CC[C@H](C(C)(O)c2ccc(-c3cc(C)cc(Nc4cc(C(F)F)ccn4)n3)cn2)CC1 (single isomer, unassigned) [Example 19-10, heptyl trans-4-[(1R or 1S)-1-(6-{[4-(difluoromethyl)pyridin-2-yl]amino}-4-methyl-2,3′-bipyridin-6′-yl)-1-hydroxyethyl] cyclohexanecarboxylate] | Half-life (min) of the conversion of the prodrug to the carboxylic acid [1]: 40 min
3 | 6.4 nM | COCCOC(=O)[C@H]1CC[C@H](C(C)(O)c2ccc(-c3cc(C)cc(Nc4cc(C(F)F)ccn4)n3)cn2)CC1 (single isomer, unassigned) [Example 19-15, 2-methoxyethyl trans-4-[(1R or 1S)-1-(6-{[4-(difluoromethyl)pyridin-2-yl]amino}-4-methyl-2,3′-bipyridin-6′-yl)-1-hydroxyethyl] cyclohexanecarboxylate] | Half-life (min) of the conversion of the prodrug to the carboxylic acid [1]: 3.9 min
4 | 1.2 nM | Cc1cc(Nc2cc(C(F)F)ccn2)nc(-c2ccc(C(C)(O)[C@H]3CC[C@H](C(=O)OCC(=O)N(C)C)CC3)nc2)c1 (single isomer, unassigned) [Example 19-18, 2-(dimethylamino)-2-oxoethyl trans-4-[(1R or 1S)-1-(6-{[4-(difluoromethyl)pyridin-2-yl]amino}-4-methyl-2,3′-bipyridin-6′-yl)-1-hydroxyethyl] cyclohexanecarboxylate] | Half-life (min) of the conversion of the prodrug to the carboxylic acid [1]: 6.2 min
5 | 8.7 nM | Cc1cc(Nc2cc(C(F)F)ccn2)nc(-c2ccc(C(C)(O)[C@H]3CC[C@H](C(=O)OCCN4CCOCC4)CC3)nc2)c1 (single isomer, unassigned) [Example 19-19, 2-{morpholin-4-yl)ethyl trans-4-[(1R or 1S)-1-(6-{[4-(difluoromethyl)pyridin-2-yl]amino}-4-methyl-2,3′-bipyridin-6′-yl)-1-hydroxyethyl] cyclohexanecarboxylate] | Half-life (min) of the conversion of the prodrug to the carboxylic acid [1]: 15 min
6 | 14 nM | CCOC(=O)OCOC(=O)[C@H]1CC[C@H](C(C)(O)c2ccc(-c3cc(C)cc(Nc4cc(C(F)F)ccn4)n3)cn2)CC1 (single isomer, unassigned) [Example 20, [(Ethoxycarbonyl)oxy]methyl trans-4-[(1R or 1S)-1-(6-{[4-(difluoromethyl)pyridin-2-yl]amino}-4-methyl-2,3′-bipyridin-6′-yl)-1-hydroxyethyl]cyclohexanecarboxylate] | half-life at 10 μM [1]: 3 min
7 | 11 nM | CC(=O)OCOC(=O)[C@H]1CC[C@H](C(C)(O)c2ccc(-c3cc(C)cc(Nc4cc(C(F)F)ccn4)n3)cn2)CC1 (single isomer, unassigned) [Example 21, (Acetyloxy)methyl trans-4-[(1R or 1S)-1-(6-{[4-(difluoromethyl)pyridin-2-yl]amino}-4-methyl-2,3′-bipyridin-6′-yl)-1-hydroxyethyl]cyclohexanecarboxylate] | half-life at 10 μM [1]: 3.3 min
8 | 8 nM | COC(=O)[C@H]1CC[C@H](C(C)(O)c2ccc(-c3cc(C)cc(Nc4cc(C(F)F)ccn4)n3)cn2)CC1 (single isomer, unassigned) [Example 22, Methyl trans-4-[(1R or 1S)-1-(6-{[4-(difluoromethyl)pyridin-2-yl]amino}-4-methyl-2,3′-bipyridin-6′-yl)-1-hydroxyethyl]cyclohexanecarboxylate] | half-life at 10 μM [1]: 4.6 min
9 | 4 nM | Cc1cc(Nc2cc(C(F)(F)F)ccn2)nc(-c2ccc(NC3CCN(C(N)=O)CC3)nc2)c1 [Example 7, 4-(4-Methyl-6-(4-(trifluoromethyl)pyridin-2-ylamino)-2,3′-bipyridin-6′-ylamino)piperidine-1-carboxamide] | –
10 | 5 nM | Cc1cc(Nc2cc(C(F)(F)F)ccn2)nc(-c2ccc(N3CCCC(NC(N)=O)C3)nc2)c1 (stereo not shown) [Example 7-1] | –
11 | 9 nM | Cc1cc(Nc2cc(C(F)(F)F)ccn2)nc(-c2ccc(C3(O)CCN(C(=O)c4ccc5cc[nH]c5n4)CC3)nc2)c1 [Example 9, 4-(4-Methyl-6-{[4-(trifluoromethyl)pyridin-2-yl]amino}-2,3′-bipyridin-6′-yl)-1-(1H-pyrrolo[2,3-b]pyridin-6-ylcarbonyl)piperidin-4-ol] | –
12 | 30 nM | Cc1cc(Nc2cc(C(F)(F)F)ccn2)nc(-c2ccc(C3(O)CCN(C(=O)c4ccc5cccnc5c4)CC3)nc2)c1 [Example 9-1] | –
13 | 13 nM | Cc1cc(Nc2cc(C(F)(F)F)ccn2)nc(-c2ccc(C3(O)CCN(C(=O)c4ccc5cc[nH]c5c4)CC3)nc2)c1 [Example 9-2] | –
14 | 10 nM | Cc1cc(Nc2cc(C(F)(F)F)ccn2)nc(-c2ccc(C3(O)CCN(C(=O)c4c[nH]c5cc(C)ccc45)CC3)nc2)c1 [Example 9-3] | –
15 | 5 nM | Cc1cc(Nc2cc(C(F)(F)F)ccn2)nc(-c2ccc(C3(O)CCN(C(=O)c4ccc5nc(C)c(C)nc5c4)CC3)nc2)c1 [Example 9-4] | –
16 | 112 nM | Cc1cc(Nc2cc(C(F)(F)F)ccn2)nc(-c2ccc(C3(O)CCN(C(=O)c4[nH]c5ccccc5c4C)CC3)nc2)c1 [Example 9-5] | –
17 | 12 nM | Cc1cc(Nc2cc(C(F)(F)F)ccn2)nc(-c2ccc(C3(O)CCN(C(=O)c4cc(-c5ccncc5)[nH]n4)CC3)nc2)c1 [Example 9-6] | –
18 | 1 nM | Cc1cc(Nc2cc(C(F)(F)F)ccn2)nc(-c2ccc(C[C@H]3CC[C@@H](C(=O)O)CC3)nc2)c1 [Example 10 cis isomer, cis-4-[(4-methyl-6-{[4-(trifluoromethyl)pyridin-2-yl]amino}-2,3′-bipyridin-6′-yl)methyl]cyclohexanecarboxylic acid] | –
19 | < 0.5 nM | Cc1cc(Nc2cc(C(F)(F)F)ccn2)nc(-c2ccc(C[C@H]3CC[C@H](C(=O)O)CC3)nc2)c1 [Example 10 trans isomer, trans-4-[(4-methyl-6-{[4-(trifluoromethyl)pyridin-2-yl]amino}-2,3′-bipyridin-6′-yl)methyl]cyclohexanecarboxylic acid] | –
20 | 6 nM | Cc1cc(Nc2cc(C(F)(F)F)ccn2)nc(-c2ccc(NC3CCN(C(=O)c4cccc5c4NC(=O)C5)CC3)nc2)c1 [Example 447] | –
21 | – | Oc1cccc(Nc2ncc(F)c(Nc3cccc(O)c3)n2)c1 [Example R112] | PGD2 change [3]: statistically significant decrease in PGD2; clinical safety [3]: safe across a range of indicators; efficacy versus placebo [4]: lack of efficacy versus placebo

Reference: patent US9145391B2, “Bipyridylaminopyridines as Syk inhibitors” (Merck Sharp & Dohme Corp., priority 2011, dated 2015)
